We go through 30 compounds from US10696693B2, “Fused imidazole derivatives as TGF-beta inhibitors” (Rigel Pharmaceuticals, Inc., priority 2014, dated 2020).

One test deals with GDF8. Nature of the test: AlphaScreen SureFire p-SMAD3 (Ser423/425) assay, GDF8-stimulated cells. It counts as cell-based. The following applies: Mus musculus, MPC-11; p-SMAD3 (Ser423/425) AlphaScreen in cell lysate; MPC11; GDF8 stimulation; read-out: GDF8: inhibition of GDF8 signaling, GDF pSMAD (MPC11). An excerpt: (§1) The p-SMAD-3 (Ser423/425) SureFire® assay has been designed to measure the phosphorylation of endogenous cellular p-SMAD-3 (Ser423/425) in cell lysates and is a system for the screening of both modulators of receptor activation (e.g. agonists and antagonists) as well as agents acting intracellularly, such as small molecule inhibitors of upstream events. The assay will measure p-SMAD-3 (Ser423/425) activation by either cloned or endogenous receptors, and can be applied to primary cells.
(§2) 96-well Assay Protocol for 293FT and RMS13 adherent cells can be carried out manually or in high throughput with liquid handling robots.
(§3) The cells (80 μL of cells for 96 well plates) were plated in collagen coated tissue culture plates in RPMI or FreeStyle medium (Invitrogen) and incubated overnight. For manual analysis, 6 plates for GDF8, 6 plates for TGFβ, and optionally 6 plates for Alk5ca(ALK5 constitutively active) were used.
(§4) The compound dilution plates were prepared as follows: 12 μL of DMSO was transferred into first column of 96-well plate, and 16 μL of DMSO was transferred into columns 2-12 of the 96-well plate. 12 μL of compound solution was transferred into first column of the DMSO-containing 96-well plate. Three-fold dilution was performed up to column 10 of the DMSO-containing 96-well plate.
(§5) The plate containing cells were treated with compounds for about 10 minutes, and then ligand was added. GDF8 or TGFb was added to plates to stimulate. 293FL cells were stimulatedfor 90 minutes at 37° C.; and RMS13 cells were stimulated for 60 minutes at 37° C. The medium was then removed from the cells, and 1× Lysis Buffer (about 25 μL) was added and the plate was gently agitated on plate shaker for 5-10 minutes.
(§6) The lysate (5 μL) was then placed into 384-well shallow plates avoiding the generation of bubbles. To this, the Reaction Buffer+Activation Buffer+AlphaScreen® Acceptor beadsmixture (5 μL) was added. The plate was sealed with adhesive cover and shielded from light (e.g., with metal foil), and agitated gently on plate shaker for 2 hours at room temperature.
(§7) Dilution buffer+AlphaScreen® Donor beads (2 μL) was then added, and the plate was intubated on the plate shaker for an additional 1½ hours. After completion, the plate was read on Synergy-4 or Enspire plate reader, using AlphaScreen® pSMAD3® settings.
(§8) Representative results for inhibition of GDF8 (data=GDF pSMAD (MPC11) (μM)) and TGF-β (data=TGF-β pSMAD (MPC-11) (μM)) signaling are shown in Table 1(A=<0.05 μM, B=0.05−<0.1 μM, C=0.1−<1.0 μM, D=>1.0 μM): […]
(Alpha assays give light when donor and acceptor beads are brought close together.)

The next test has as its system TGF-β. Description: AlphaScreen SureFire p-SMAD3 (Ser423/425) assay, TGF-β-stimulated cells. It counts as cell-based. The following applies: Mus musculus.
Source text: as §1, §2, §3, §4, §5, §6, §7, §8

[1] abbreviates: p-SMAD3 (Ser423/425) AlphaScreen in cell lysate, MPC-11, TGF-β stimulation, read-out: TGF-β: inhibition of TGF-β signaling, TGF-β pSMAD (MPC-11).

Read-outs that look alike come from different tables or passages of the source. Bounds are passed on as bounds.

For `Cc1cccc(-c2nc3n(c2-c2ccc4nccn4c2)CCC3)c1` [Compound 1, 6-(2-(m-tolyl)-6,7-dihydro-5H-pyrrolo[1,2-a]imidazol-3-yl)imidazo[1,2-c]pyridine], the values for the IC50 with GDF8 and in the test with TGF-β (setting [1]) were 50 to 100 nM and 100 to 1000 nM, respectively.
Consider `Fc1ccc(-c2nc3n(c2-c2ccc4nccn4c2)CCC3)cc1` [Compound 2], for which the IC50 in the test on GDF8 and in the test on TGF-β (setting [1]) was 100 to 1000 nM throughout.
Regarding `Cc1cc(-c2nc3n(c2-c2ccc4nccn4c2)CCC3)ccc1F` [Compound 3, 6-(2-(4-fluoro-3-methylphenyl)-6,7-dihydro-5H-pyrrolo[1,2-a]imidazol-3-yl)imidazo[1,2-a]pyridine], the results for the IC50 in the test with GDF8 and in the test with TGF-β (setting [1]) were 50 to 100 nM and 100 to 1000 nM, respectively.
With `FC(F)(F)c1cccc(-c2nc3n(c2-c2ccc4nccn4c2)CCC3)c1` [Compound 4], the IC50 with GDF8 and in the test on TGF-β (setting [1]) was 100 to 1000 nM each time.
As to `COc1cccc(-c2nc3n(c2-c2ccc4nccn4c2)CCC3)c1` [Compound 5], the IC50 in the test on GDF8 and in the test on TGF-β (setting [1]) was 100 to 1000 nM in each case.
`Clc1cccc(-c2nc3n(c2-c2ccc4nccn4c2)CCC3)c1` [Compound 6, 6-(2-(3-chlorophenyl)-6,7-dihydro-5H-pyrrolo[1,2-a]imidazol-3-yl)imidazo[1,2-a]pyridine]: the IC50 in the test with GDF8 and in the test with TGF-β (setting [1]) was 100 to 1000 nM in each case.
`Fc1cccc(-c2nc3n(c2-c2ccc4nccn4c2)CCC3)c1` [Compound 7, 6-(2-(3-fluorophenyl)-6,7-dihydro-5H-pyrrolo[1,2-c]imidazol-3-yl)imidazo[1,2-c]pyridine]: the figures for the IC50 with GDF8 and in the test on TGF-β (setting [1]) were 100 to 1000 nM and more than 1000 nM, respectively.
Regarding `Fc1ccccc1-c1nc2n(c1-c1ccc3nccn3c1)CCC2` [Compound 8], the IC50 in the test on GDF8 and with TGF-β (setting [1]) was 100 to 1000 nM throughout.
Turning to `Fc1ccc(-c2nc3n(c2-c2ccc4nccn4c2)CCC3)c(F)c1` [Compound 9], the results for the IC50 in the test on GDF8 and with TGF-β (setting [1]) were less than 50 nM and 100 to 1000 nM, respectively.
In the same order, the values of `Fc1ccc(-c2nc3n(c2-c2ccc4nccn4c2)CCC3)cc1F` [Compound 10] are 100 to 1000 nM and more than 1000 nM.
`Fc1cccc(F)c1-c1nc2n(c1-c1ccc3nccn3c1)CCC2` [Compound 11]: the IC50 in the test with GDF8 is 100 to 1000 nM; with TGF-β (setting [1]) it was more than 1000 nM.
`Fc1cc(F)c(-c2nc3n(c2-c2ccc4nccn4c2)CCC3)cc1F` [Compound 12]: the IC50 in the test on GDF8 is less than 50 nM; in the test with TGF-β (setting [1]), 100 to 1000 nM.
On to `Fc1cc(-c2nc3n(c2-c2ccc4nccn4c2)CCC3)cc(F)c1F` [Compound 13], for which the IC50 in the test on GDF8 was 100 to 1000 nM; with TGF-β (setting [1]) it was more than 1000 nM.
Regarding `Fc1cc(F)c(-c2nc3n(c2-c2ccc4ncnn4c2)CCC3)cc1F` [Compound 14, 6-(2-(2,4,5-trifluorophenyl)-6,7-dihydro-5H-pyrrolo[1,2-a]imidazol-3-yl)-[1,2,4]triazolo[1,5-a]pyridine], the IC50 was less than 50 nM in the test with GDF8 and 100 to 1000 nM in the test on TGF-β (setting [1]).
With `Fc1ccc(-c2nc3n(c2-c2ccc4ncnn4c2)CCC3)c(F)c1F` [Compound 15, 6-(2-(2,3,4-trifluorophenyl)-6,7-dihydro-5H-pyrrolo[1,2-a]imidazol-3-yl)-[1,2,4]triazolo[1,5-a]pyridine], the results for the IC50 with GDF8 and in the test with TGF-β (setting [1]) were 100 to 1000 nM and more than 1000 nM, respectively.
For the compound `Fc1cc(-c2nc3n(c2-c2ccc4ncnn4c2)CCC3)cc(F)c1F` [Compound 16, 6-(2-(3,4,5-trifluorophenyl)-6,7-dihydro-5H-pyrrolo[1,2-a]imidazol-3-yl)-[1,2,4]triazolo[1,5-a]pyridine], the IC50 in the test with GDF8 was 100 to 1000 nM; with TGF-β (setting [1]), more than 1000 nM.
Take `Fc1cc(F)c(F)c(-c2nc3n(c2-c2ccc4ncnn4c2)CCC3)c1` [Compound 17, 6-(2-(2,3,5-trifluorophenyl)-6,7-dihydro-5H-pyrrolo[1,2-a]imidazol-3-yl)-[1,2,4]triazolo[1,5-a]pyridine]: the values for the IC50 with GDF8 and in the test on TGF-β (setting [1]) were 100 to 1000 nM and more than 1000 nM, respectively.
In the same order, the values of `Fc1cc(-c2nc3n(c2-c2ccc4ncnn4c2)CCC3)c(F)cc1Cl` [Compound 18, 6-(2-(4-chloro-2,5-difluorophenyl)-6,7-dihydro-5H-pyrrolo[1,2-a]imidazol-3-yl)-[1,2,4]triazolo[1,5-a]pyridine] are 100 to 1000 nM and more than 1000 nM.
In the same order, the values of `Fc1cc(-c2nc3n(c2-c2ccc4nccn4c2)CCC3)c(F)cc1Cl` [Compound 19, 6-(2-(4-chloro-2,5-difluorophenyl)-6,7-dihydro-5H-pyrrolo[1,2-a]imidazol-3-yl)imidazo[1,2-a]pyridine] are more than 1000 nM and more than 1000 nM.
On the same counts, the results for `CC(C)c1nnc2ccc(-c3c(-c4cc(F)c(Cl)cc4F)nc4n3CCC4)cn12` [Compound 20, 6-(2-(4-chloro-2,5-difluorophenyl)-6,7-dihydro-5H-pyrrolo[1,2-a]imidazol-3-yl)-3-isopropyl-[1,2,4]triazolo[4,3-a]pyridine] are more than 1000 nM and more than 1000 nM.
Regarding `CC(C)c1nnc2ccc(-c3c(-c4cc(F)c(F)cc4F)nc4n3CCC4)cn12` [Compound 21, 3-isopropyl-6-(2-(2,4,5-trifluorophenyl)-6,7-dihydro-5H-pyrrolo[1,2-a]imidazol-3-yl)-[1,2,4]triazolo[4,3-a]pyridine], the IC50 in the test on GDF8 and with TGF-β (setting [1]) was more than 1000 nM in each case.
As to `CC(C)c1nnc2ccc(-c3c(-c4cc(F)cc(F)c4F)nc4n3CCC4)cn12` [Compound 22, 3-isopropyl-6-(2-(2,3,5-trifluorophenyl)-6,7-dihydro-5H-pyrrolo[1,2-a]imidazol-3-yl)-[1,2,4]triazolo[4,3-a]pyridine], the IC50 with GDF8 and in the test with TGF-β (setting [1]) was more than 1000 nM in each case.
As for `CC(C)c1nnc2ccc(-c3c(-c4ccc(F)c(F)c4F)nc4n3CCC4)cn12` [Compound 23, 3-isopropyl-6-(2-(2,3,4-trifluorophenyl)-6,7-dihydro-5H-pyrrolo[1,2-a]imidazol-3-yl)-[1,2,4]triazolo[4,3-a]pyridine], the IC50 with GDF8 and in the test with TGF-β (setting [1]) was more than 1000 nM throughout.
In the case of `Cc1cc(-c2nc3n(c2-c2ccc4ncnn4c2)CCC3)cc(C)c1Cl` [Compound 24, 6-(2-(4-chloro-3,5-dimethylphenyl)-6,7-dihydro-5H-pyrrolo[1,2-a]imidazol-3-yl)-[1,2,4]triazolo[1,5-a]pyridine], the IC50 in the test with GDF8 and in the test with TGF-β (setting [1]) was more than 1000 nM throughout.
With `Cc1cc(-c2nc3n(c2-c2ccc4nccn4c2)CCC3)cc(C)c1Cl` [Compound 25, 6-(2-(4-chloro-3,5-dimethylphenyl)-6,7-dihydro-5H-pyrrolo[1,2-a]imidazol-3-yl)imidazo[1,2-a]pyridine], the IC50 in the test with GDF8 and with TGF-β (setting [1]) was more than 1000 nM in each case.
With `Cc1ccc(-c2nc3n(c2-c2ccc4ncnn4c2)CCC3)c(F)c1F` [Compound 26, 6-(2-(2,3-difluoro-4-methylphenyl)-6,7-dihydro-5H-pyrrolo[1,2-a]imidazol-3-yl)-[1,2,4]triazolo[1,5-a]pyridine], the IC50 in the test on GDF8 and in the test on TGF-β (setting [1]) was more than 1000 nM each time.
In the case of `Cc1ccc(-c2nc3n(c2-c2ccc4nccn4c2)CCC3)c(F)c1F` [Compound 27], the IC50 in the test on GDF8 and in the test with TGF-β (setting [1]) was more than 1000 nM throughout.
In the case of `Cc1cc(-c2nc3n(c2-c2ccc4ncnn4c2)CCC3)c(F)cc1Cl` [Compound 28, 6-(2-(4-chloro-2-fluoro-5-methylphenyl)-6,7-dihydro-5H-pyrrolo[1,2-c]imidazol-3-yl)-[1,2,4]triazolo[1,5-c]pyridine], the IC50 in the test on GDF8 and in the test with TGF-β (setting [1]) was more than 1000 nM in each case.
For the compound `Cc1cc(-c2nc3n(c2-c2ccc4nccn4c2)CCC3)c(F)cc1Cl` [Compound 29], the IC50 with GDF8 and with TGF-β (setting [1]) was more than 1000 nM in each case.
As for `Cc1cccc(-c2nc3n(c2-c2ccc4ncsc4c2)CCC3)n1` [Compound 364, 6-(2-(6-methylpyridin-2-yl)-6,7-dihydro-5H-pyrrolo[1,2-a]imidazol-3-yl)benzo[d]thiazole], the IC50 in the test on TGF-β (MPC-11, read-out: TGF-β: inhibition of TGF-β signaling, TGF-β pSMAD (MPC-11), p-SMAD3 (Ser423/425) AlphaScreen in cell lysate, TGF-β stimulation) was less than 50 nM.
